Measured values as given in patent publication US8232407B2, “Nitrogenous heterocyclic compounds with insecticidal activity, and the preparation and use thereof” (East China University of Science and Technology, priority 2008, dated 2012).

Assays:
Type in all cases: in vivo
Settings in all cases: in vivo
[1] = test system: Pseudaletia separate Walker; assay: Insecticidal activities to armyworm, leaf dipping and feeding
How it was run: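 Maize leaves dipped 3 s in acetone-formulated compound at 500 down to 1.57 ppm, dried and fed to armyworms, 10 insects per treatment in triplicate, aqueous acetone as control. Mortality was counted after 24 hours and corrected against control survival.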

Nilaparvata lugens = assay: Insecticidal activities to plant hopper, spraying method
How it was run: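 Nilaparvata lugens, 10 insects per tumbler, sprayed with 2 ml compound in acetone at 0.79-500 ppm, three replicates, aqueous acetone control. Dead insects counted after 24 h; mortality corrected against control survival.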

Aphis craccivoral = assay: Insecticidal activities to aphids, immersion method
How it was run: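 Wingless adult aphids feeding on bean sprouts were dipped 5 s in 500 ppm compound (DMF stock diluted in 0.2 mL/L aqueous Triton X-100), blotted and held at 23° C. Dead counted at 24 h, three replicates; mortality corrected against Triton-only controls.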

Plutella xylostella = assay: Insecticidal activities to diamondback moth, feeding dipped leaves
How it was run: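 Leaf-dip feeding assay: fresh cabbage leaves dipped 3 s in test solution, air-dried and fed to Plutella xylostella, 10 insects per treatment, three replicates, water control. Deaths counted after 24 h; mortality corrected against survival in the control group.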

C[N+]1=C(C(=Cc2ccc([N+](=O)[O-])s2)[N+](=O)[O-])N(Cc2ccc(Cl)nc2)CC1.[Cl-] [Compound 261]
100%: Pseudaletia separate Walker Mortality (%) 500 ppm [1] | Nilaparvata lugens Mortality (%) 500 ppm (Nilaparvata lugens) | Aphis craccivoral Mortality (%) 500 ppm (Aphis craccivoral) | Plutella xylostella Mortality (%) 500 ppm (Plutella xylostella)

C[N+]1=C(C(=Cc2ccc(Cl)s2)[N+](=O)[O-])N(Cc2ccc(Cl)nc2)CC1.[Cl-] [Compound 262]
100%: Pseudaletia separate Walker Mortality (%) 500 ppm [1] | Nilaparvata lugens Mortality (%) 500 ppm (Nilaparvata lugens) | Aphis craccivoral Mortality (%) 500 ppm (Aphis craccivoral) | Plutella xylostella Mortality (%) 500 ppm (Plutella xylostella)

C[N+]1=C(C(=Cc2ccc(Br)s2)[N+](=O)[O-])N(Cc2ccc(Cl)nc2)CC1.[Cl-] [Compound 263]
100%: Pseudaletia separate Walker Mortality (%) 500 ppm [1] | Nilaparvata lugens Mortality (%) 500 ppm (Nilaparvata lugens) | Aphis craccivoral Mortality (%) 500 ppm (Aphis craccivoral) | Plutella xylostella Mortality (%) 500 ppm (Plutella xylostella)

C[N+]1=C(C(=Cc2cc(Cl)cs2)[N+](=O)[O-])N(Cc2ccc(Cl)nc2)CC1.[Cl-] [Compound 264]
100%: Pseudaletia separate Walker Mortality (%) 500 ppm [1] | Nilaparvata lugens Mortality (%) 500 ppm (Nilaparvata lugens) | Aphis craccivoral Mortality (%) 500 ppm (Aphis craccivoral) | Plutella xylostella Mortality (%) 500 ppm (Plutella xylostella)

C[N+]1=C(C(=Cc2cc(Br)cs2)[N+](=O)[O-])N(Cc2ccc(Cl)nc2)CC1.[Cl-] [Compound 265]
100%: Pseudaletia separate Walker Mortality (%) 500 ppm [1] | Nilaparvata lugens Mortality (%) 500 ppm (Nilaparvata lugens) | Aphis craccivoral Mortality (%) 500 ppm (Aphis craccivoral) | Plutella xylostella Mortality (%) 500 ppm (Plutella xylostella)

C[N+]1=C(C(=Cc2cc(Cl)c(Cl)s2)[N+](=O)[O-])N(Cc2ccc(Cl)nc2)CC1.[Cl-] [Compound 266]
100%: Pseudaletia separate Walker Mortality (%) 500 ppm [1] | Nilaparvata lugens Mortality (%) 500 ppm (Nilaparvata lugens) | Aphis craccivoral Mortality (%) 500 ppm (Aphis craccivoral) | Plutella xylostella Mortality (%) 500 ppm (Plutella xylostella)

C[N+]1=C(C(=Cc2sc(Cl)cc2Cl)[N+](=O)[O-])N(Cc2ccc(Cl)nc2)CC1.[Cl-] [Compound 267]
100%: Pseudaletia separate Walker Mortality (%) 500 ppm [1] | Nilaparvata lugens Mortality (%) 500 ppm (Nilaparvata lugens) | Aphis craccivoral Mortality (%) 500 ppm (Aphis craccivoral) | Plutella xylostella Mortality (%) 500 ppm (Plutella xylostella)

C[N+]1=C(C(=Cc2cc(Br)c(Br)s2)[N+](=O)[O-])N(Cc2ccc(Cl)nc2)CC1.[Cl-] [Compound 268]
100%: Pseudaletia separate Walker Mortality (%) 500 ppm [1] | Nilaparvata lugens Mortality (%) 500 ppm (Nilaparvata lugens) | Aphis craccivoral Mortality (%) 500 ppm (Aphis craccivoral) | Plutella xylostella Mortality (%) 500 ppm (Plutella xylostella)

C[N+]1=C(C(=Cc2sc(Br)cc2Br)[N+](=O)[O-])N(Cc2ccc(Cl)nc2)CC1.[Cl-] [Compound 269]
100%: Pseudaletia separate Walker Mortality (%) 500 ppm [1] | Nilaparvata lugens Mortality (%) 500 ppm (Nilaparvata lugens) | Aphis craccivoral Mortality (%) 500 ppm (Aphis craccivoral) | Plutella xylostella Mortality (%) 500 ppm (Plutella xylostella)

Cc1ccc(C=C(C2=[N+](C)CCN2Cc2ccc(Cl)nc2)[N+](=O)[O-])s1.[Cl-] [Compound 270]
100%: Pseudaletia separate Walker Mortality (%) 500 ppm [1] | Nilaparvata lugens Mortality (%) 500 ppm (Nilaparvata lugens) | Aphis craccivoral Mortality (%) 500 ppm (Aphis craccivoral) | Plutella xylostella Mortality (%) 500 ppm (Plutella xylostella)

Cc1csc(C=C(C2=[N+](C)CCN2Cc2ccc(Cl)nc2)[N+](=O)[O-])c1.[Cl-] [Compound 271]
100%: Pseudaletia separate Walker Mortality (%) 500 ppm [1] | Nilaparvata lugens Mortality (%) 500 ppm (Nilaparvata lugens) | Aphis craccivoral Mortality (%) 500 ppm (Aphis craccivoral) | Plutella xylostella Mortality (%) 500 ppm (Plutella xylostella)

CCc1ccc(C=C(C2=[N+](C)CCN2Cc2ccc(Cl)nc2)[N+](=O)[O-])s1.[Cl-] [Compound 272]
100%: Pseudaletia separate Walker Mortality (%) 500 ppm [1] | Nilaparvata lugens Mortality (%) 500 ppm (Nilaparvata lugens) | Aphis craccivoral Mortality (%) 500 ppm (Aphis craccivoral) | Plutella xylostella Mortality (%) 500 ppm (Plutella xylostella)

C[N+]1=C(C(=Cc2ccc(CO)s2)[N+](=O)[O-])N(Cc2ccc(Cl)nc2)CC1.[Cl-] [Compound 273]
100%: Pseudaletia separate Walker Mortality (%) 500 ppm [1] | Nilaparvata lugens Mortality (%) 500 ppm (Nilaparvata lugens) | Aphis craccivoral Mortality (%) 500 ppm (Aphis craccivoral) | Plutella xylostella Mortality (%) 500 ppm (Plutella xylostella)

C[N+]1=C(C(=Cc2ccc[nH]2)[N+](=O)[O-])N(Cc2ccc(Cl)nc2)CC1.[Cl-] [Compound 274]
100%: Pseudaletia separate Walker Mortality (%) 500 ppm [1] | Nilaparvata lugens Mortality (%) 500 ppm (Nilaparvata lugens) | Aphis craccivoral Mortality (%) 500 ppm (Aphis craccivoral) | Plutella xylostella Mortality (%) 500 ppm (Plutella xylostella)

Cn1cccc1C=C(C1=[N+](C)CCN1Cc1ccc(Cl)nc1)[N+](=O)[O-].[Cl-] [Compound 275]
100%: Pseudaletia separate Walker Mortality (%) 500 ppm [1] | Nilaparvata lugens Mortality (%) 500 ppm (Nilaparvata lugens) | Aphis craccivoral Mortality (%) 500 ppm (Aphis craccivoral) | Plutella xylostella Mortality (%) 500 ppm (Plutella xylostella)

C[N+]1=C(C(=Cc2ccoc2)[N+](=O)[O-])N(Cc2cnc(Cl)s2)CC1.[Cl-] [Compound 276]
100%: Pseudaletia separate Walker Mortality (%) 500 ppm [1] | Nilaparvata lugens Mortality (%) 500 ppm (Nilaparvata lugens) | Aphis craccivoral Mortality (%) 500 ppm (Aphis craccivoral) | Plutella xylostella Mortality (%) 500 ppm (Plutella xylostella)

C[N+]1=C(C(=Cc2ccc([N+](=O)[O-])o2)[N+](=O)[O-])N(Cc2cnc(Cl)s2)CC1.[Cl-] [Compound 277]
100%: Pseudaletia separate Walker Mortality (%) 500 ppm [1] | Nilaparvata lugens Mortality (%) 500 ppm (Nilaparvata lugens) | Aphis craccivoral Mortality (%) 500 ppm (Aphis craccivoral) | Plutella xylostella Mortality (%) 500 ppm (Plutella xylostella)

C[N+]1=C(C(=Cc2ccc(Cl)o2)[N+](=O)[O-])N(Cc2cnc(Cl)s2)CC1.[Cl-] [Compound 278]
100%: Pseudaletia separate Walker Mortality (%) 500 ppm [1] | Nilaparvata lugens Mortality (%) 500 ppm (Nilaparvata lugens) | Aphis craccivoral Mortality (%) 500 ppm (Aphis craccivoral) | Plutella xylostella Mortality (%) 500 ppm (Plutella xylostella)

C[N+]1=C(C(=Cc2ccc(Br)o2)[N+](=O)[O-])N(Cc2cnc(Cl)s2)CC1.[Cl-] [Compound 279]
100%: Pseudaletia separate Walker Mortality (%) 500 ppm [1] | Nilaparvata lugens Mortality (%) 500 ppm (Nilaparvata lugens) | Aphis craccivoral Mortality (%) 500 ppm (Aphis craccivoral) | Plutella xylostella Mortality (%) 500 ppm (Plutella xylostella)

C[N+]1=C(C(=Cc2cccs2)[N+](=O)[O-])N(Cc2cnc(Cl)s2)CC1.[Cl-] [Compound 280]
100%: Pseudaletia separate Walker Mortality (%) 500 ppm [1] | Nilaparvata lugens Mortality (%) 500 ppm (Nilaparvata lugens) | Aphis craccivoral Mortality (%) 500 ppm (Aphis craccivoral) | Plutella xylostella Mortality (%) 500 ppm (Plutella xylostella)

C[N+]1=C(C(=Cc2ccsc2)[N+](=O)[O-])N(Cc2cnc(Cl)s2)CC1.[Cl-] [Compound 281]
100%: Pseudaletia separate Walker Mortality (%) 500 ppm [1] | Nilaparvata lugens Mortality (%) 500 ppm (Nilaparvata lugens) | Aphis craccivoral Mortality (%) 500 ppm (Aphis craccivoral) | Plutella xylostella Mortality (%) 500 ppm (Plutella xylostella)

C[N+]1=C(C(=Cc2ccc([N+](=O)[O-])s2)[N+](=O)[O-])N(Cc2cnc(Cl)s2)CC1.[Cl-] [Compound 282]
100%: Pseudaletia separate Walker Mortality (%) 500 ppm [1] | Nilaparvata lugens Mortality (%) 500 ppm (Nilaparvata lugens) | Aphis craccivoral Mortality (%) 500 ppm (Aphis craccivoral) | Plutella xylostella Mortality (%) 500 ppm (Plutella xylostella)

C[N+]1=C(C(=Cc2ccc(Cl)s2)[N+](=O)[O-])N(Cc2cnc(Cl)s2)CC1.[Cl-] [Compound 283]
100%: Pseudaletia separate Walker Mortality (%) 500 ppm [1] | Nilaparvata lugens Mortality (%) 500 ppm (Nilaparvata lugens) | Aphis craccivoral Mortality (%) 500 ppm (Aphis craccivoral) | Plutella xylostella Mortality (%) 500 ppm (Plutella xylostella)

C[N+]1=C(/C(=C\c2ccc[nH]2)[N+](=O)[O-])N(Cc2cnc(Cl)s2)CC1.[Cl-] [Compound 284]
100%: Pseudaletia separate Walker Mortality (%) 500 ppm [1] | Nilaparvata lugens Mortality (%) 500 ppm (Nilaparvata lugens) | Aphis craccivoral Mortality (%) 500 ppm (Aphis craccivoral) | Plutella xylostella Mortality (%) 500 ppm (Plutella xylostella)

CC[N+]1=C(C(=Cc2ccco2)[N+](=O)[O-])N(Cc2ccc(Cl)nc2)CC1.[Cl-] [Compound 285]
100%: Pseudaletia separate Walker Mortality (%) 500 ppm [1] | Nilaparvata lugens Mortality (%) 500 ppm (Nilaparvata lugens) | Aphis craccivoral Mortality (%) 500 ppm (Aphis craccivoral) | Plutella xylostella Mortality (%) 500 ppm (Plutella xylostella)

CC[N+]1=C(C(=Cc2ccoc2)[N+](=O)[O-])N(Cc2ccc(Cl)nc2)CC1.[Cl-] [Compound 286]
100%: Pseudaletia separate Walker Mortality (%) 500 ppm [1] | Nilaparvata lugens Mortality (%) 500 ppm (Nilaparvata lugens) | Aphis craccivoral Mortality (%) 500 ppm (Aphis craccivoral) | Plutella xylostella Mortality (%) 500 ppm (Plutella xylostella)

CC[N+]1=C(C(=Cc2ccc([N+](=O)[O-])o2)[N+](=O)[O-])N(Cc2ccc(Cl)nc2)CC1.[Cl-] [Compound 287]
100%: Pseudaletia separate Walker Mortality (%) 500 ppm [1] | Nilaparvata lugens Mortality (%) 500 ppm (Nilaparvata lugens) | Aphis craccivoral Mortality (%) 500 ppm (Aphis craccivoral) | Plutella xylostella Mortality (%) 500 ppm (Plutella xylostella)
